Measured values as given in patent US8609417B2, “Methods and compositions for stem cell cultures” (The Regents of the University of California, priority 2009, dated 2013).

Tests used:
Format in all cases: cell-based, human
hiPS cells [1] = assay: Clonal assay evaluated by alkaline phosphatase (ALP) assay; conditions: single cell per well, Matrigel-coated 96-well plates, blebbistatin 5 μM, 7 days
Experimental: hES or hiPS cells in mTeSR supplemented with or without blebbistatin were plated on Matrigel-coated 96-well plates at a single cell per well. Seven days after plating, cells were subjected to alkaline phosphatase assay using Alkaline Phosphatase Detection Kit (Millipore) according to the manufacturer's instruction.

hiPS cells [2] = assay: Cell viability assay under adherence conditions (trypan blue live cell counting); conditions: 10 μM, 24 h after plating 1×10^5 cells/well, n=3
Experimental: hES or hiPS cells were plated at 1×10^5 cells/well on 12-well plates coated with PDL or Matrigel in mTeSR in the presence or absence of blebbistatin or Y-27632 at various concentrations in triplicates. DMSO (solvent for blebbistatin) was also added in the control condition and found to have no effect on viability. For mES cells, cells were plated under the same condition except for the use of gelatin coating and mES medium. After 24 h, cells were harvested, trypsinized to single cells, and counted by hemocytometer. Cell counting was performed independently by two researchers to confirm the consistency. The same samples were used for TUNEL assay immediately after taking a small fraction of the sample for cell counting.

hiPS cells [3] = assay: TUNEL assay (apoptosis)
Experimental: The samples in triplicates used for cell viability assay were immediately tested by TUNEL assay by using APO-DIRECT kit (BD Pharmingen) according to the manufacturer's protocol. The number of TUNEL (FITC) or propidium iodide (PI)-positive cells was counted by hemocytometer under fluorescent microscopy with 20× objective. When necessary, FITC-labeled cells were verified by using 40× objective to exclude non-specific signal. At least 300 cells were evaluated per each sample and counting was repeated for 2 times. The ratio of the number of TUNEL-positive cells to the number of PI-positive cells was calculated. The representative result was shown in the figure from experiments repeated for at least 3 times. Although flow cytometric analysis was initially attempted, due to persistent cell aggregations from suspension culture experiments even after extensive trypsinization and trituration, we decided to switch to manual cell counting which well correlated with the data obtained from cell viability assay.

hiPS cells [4] = assay: Cell viability under suspension culture; conditions: 2 days
Experimental: For the evaluation of cell viability under suspension culture, hES or hiPS cells were plated at 5×10^5 in non-tissue culture-treated 6-well plates with non-conditioned standard hESm containing blebbistatin or Y-27632 at different concentrations in triplicates. After 2 days, cells were harvested with trypsinization and extensive trituration by pipetting, and the number of live cells was manually counted by using hemocytometer and trypan blue staining. The cell survival ratio (%) represents the ratio of the number of live cells to the number of cells plated. The same samples were subjected to TUNEL assay for side by side comparison with the data from cell viability assay.

hES cells = assay: Cell-cell contact of hES cells (morphology, cell contact index); conditions: hES cells, 10 μM
Experimental: Rock and myosin II regulate cell-cell interactions in hES cells. To test whether the observed function of RRM signaling in cell-cell contacts in mES cells is conserved in hES cells, H1 cells grown under the feeder-free condition with Matrigel™ and conditioned medium (CM) (FIG. 3A) were treated with C3 exoenzyme. […] Rock-inhibitor treatment also led to cell adhesion defects although it required a higher concentration (20 μM) than that (10 μM) for mES cells (FIG. 3C). Myosin IIA and IIB were colocalized with cell-cell borders in hES cells, which indicates their potential role in cell-cell adhesions (FIG. 3D).

hiPS and hES cells = assay: Standard G-banded karyotyping; conditions: cells grown under blebbistatin/PDL for 20 passages
Experimental: Standard G-banded karyotyping was carried out for each cell line approximately every 10 to 20 passages.

hiPS cells and hES cells = assay: Cell survival / embryoid body formation in low-density suspension culture; conditions: compared with Y27632
Excerpt: While hiPS and hES cells can form cell aggregates and subsequently grow as embryoid bodies when plated at high densities on non-adhesive culture surfaces such as non-tissue culture-treated plates, they mostly undergo apoptosis when plated at low densities that prevent cells from forming aggregates. This is because human pluripotent stem cells are epithelical cells that are programmed to activate cell death signals upon detachment from culture surface (anoikis).

`Cc1ccc2c(c1)C(=O)C1(O)CCN(c3ccccc3)C1=N2` (stereo not shown) [blebbistatin, 1-Phenyl-1,2,3,4-tetrahydro-4-hydroxypyrrolo[2,3-b]-7-methylquinolin-4-one] was tested, and the “Cloning efficiency (ratio of wells with an ALP-positive colony to wells seeded)” value (hiPS cells [1]) was 29±1.8%, the “Number of viable cells” value (hiPS cells [2]; hiPS cells on Matrigel coating) was 8.6±0.6×10^4 cells and the “Number of viable cells” value (hiPS cells [2]; hiPS cells on PDL) was 7.9±0.6×10^4 cells. The “Level of apoptosis (TUNEL and cleaved caspase-3 assays)” value (hiPS cells [3]; hPS cells in suspension culture) was “significantly lower levels of apoptosis”, the TUNEL-positive cells (hiPS cells [3]; hiPS cells under adherence condition, 24 h, n=3 (control 73±2.5%)) was 11±3.8% and the “Effect on survival in suspension culture” value (hiPS cells [4]; hPS cells in suspension, various concentrations) was “higher viability than Y-27632”. The “Number of live cells” value (hiPS cells [4]; hiPS cells in suspension culture, 10 μM, n=3) was 1.6±0.12×10^5 cells, the “Effect on cell-cell connections” value (hES cells) was “disrupted cell-cell connections” and the Karyotype (hiPS and hES cells) was “maintain genomic integrity”. The “Cell survival in low-density suspension culture” value (hiPS cells and hES cells) was “markedly increased cell survival”.
